Earlier results, collected in patent publication US8410113B2, “(2R)-1-(3-chloro-2-pyrazinyl)-2-methylpiperazine and salts thereof” (Biovitrum AB (publ), priority 2002, dated 2013).

Assays:
[1] = obese subjects, after 2 weeks of treatment; cited from earlier work
5-HT2c receptor [2] = settings: mice expressing the mutated inactive form of the 5-HT2c receptor; cited from earlier work
5-HT2c receptor [3] = target: T1, 5-HT2c receptor (Mus musculus, UniProt P34968); settings: mice that express the normal 5-HT2c receptor; cited from earlier work
T1 construct: mice that express the normal 5-HT2c receptor; host or cells: mice (whole animal)
T1 sequence (P34968 33-459): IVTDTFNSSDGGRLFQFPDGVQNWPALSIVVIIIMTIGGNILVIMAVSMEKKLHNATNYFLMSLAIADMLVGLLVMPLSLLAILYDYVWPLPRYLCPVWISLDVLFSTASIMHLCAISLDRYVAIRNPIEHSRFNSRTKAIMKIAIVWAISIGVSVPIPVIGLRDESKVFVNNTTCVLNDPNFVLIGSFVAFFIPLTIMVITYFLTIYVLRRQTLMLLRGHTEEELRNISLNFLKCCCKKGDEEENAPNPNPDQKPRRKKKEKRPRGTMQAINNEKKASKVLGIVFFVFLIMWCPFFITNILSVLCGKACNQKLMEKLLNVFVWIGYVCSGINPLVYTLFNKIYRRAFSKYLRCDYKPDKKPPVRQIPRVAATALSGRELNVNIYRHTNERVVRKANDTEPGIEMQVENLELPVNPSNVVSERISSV

Clc1cccc(N2CCNCC2)c1 [mCPP, m-chlorophenylpiperazine]
body weight [1]: slight but sustained reduction in body weight | weight loss (5-HT2c receptor [2]): lacks activity | weight loss (5-HT2c receptor [3]): causes weight loss
